These are literature values, as cited in the PKSmart pharmacokinetics tables (Seal et al. 2025).

Each structure is given as a SMILES string.

One data set is described as follows: not given per row; by the article one of three: Lombardo et al. 2013, J Clin Pharmacol 53:178, doi 10.1177/0091270012440282; 'New Drugs at FDA', novel drug approvals for 2021 and 2022 (the article's reference 43); Yap, Li, Chen 2006, J Mol Graph Model 24:383, doi 10.1016. The settings on record: human; in vivo.
For orientation: clearance means a measure of how efficiently the substance is removed, as volume per time. Regarding `CON=C(C(=O)NC1C(=O)N2C(C(=O)[O-])=C(C[n+]3cccc4c3CCC4)CS[C@@H]12)c1csc(N)n1` (stereo partly drawn), the clearance was 1.98 mL/min/kg.

For the compound `C[C@H](NCCc1ccc(O)cc1)[C@H](O)c1ccc(O)cc1`, the clearance was 8.67 mL/min/kg.

Regarding `CN(C)CCC[C@]1(c2ccc(F)cc2)OCc2cc(C#N)ccc21`, the clearance was 5.21 mL/min/kg.

As for `CC(C)NC[C@@H](O)COc1ccc(COCCOC(C)C)cc1`, the clearance was 3.55 mL/min/kg.

For `CCCCCCCN(CC)CCC[C@@H](O)c1ccc(NS(C)(=O)=O)cc1`, the clearance is 29 mL/min/kg.

For `CCN(CC)C(=O)N[C@H]1C[C@@H]2c3cccc4[nH]cc(c34)C[C@H]2N(C)C1`, the clearance was 16 mL/min/kg.

As for `CCC(C)C(=O)O[C@@H]1C[C@@H](O)C=C2C=C[C@@H](C)[C@H](CC[C@H](O)C[C@H](O)CC(=O)O)[C@H]21` (stereo partly drawn), the clearance was 8.5 mL/min/kg.

Regarding `CCCCCc1cc(O)c2c(c1)OC(C)(C)[C@H]1CCC(C)=C[C@H]21`, the clearance was 3.33 mL/min/kg.

Usually Vd stands for the apparent volume that relates the amount in the body to the concentration in plasma or blood. A word on the half-life: it is the time in which the quantity being followed falls by half. For `C=CC(=O)Nc1cc(Nc2ncc(C(=O)OC(C)C)c(-c3cn(C)c4ccccc34)n2)c(OC)cc1N(C)CCN(C)C`, the volume of distribution (Vd) was 58.5 L/kg, the clearance is 38.3 mL/min/kg and the half-life was 18 h.

Consider `CCOC(=O)Nc1c[n+](N2CCOCC2)no1`, for which the clearance is 9.52 mL/min/kg.

In the case of `C=CC(=O)N1CCN(c2nc(=O)n(-c3c(C)ccnc3C(C)C)c3nc(-c4c(O)cccc4F)c(F)cc23)[C@@H](C)C1`, the distribution volume (Vd) was 3.52 L/kg and the clearance was 7.28 mL/min/kg.

`CC1(C)C(=CC=C2CCCC(C=CC3=[N+](CCCCS(=O)(=O)O)c4ccc(S(=O)(=O)[O-])cc4C3(C)C)=C2Oc2ccc(CC(NC(=O)c3ccc(NCc4cnc5nc(N)[nH]c(=O)c5n4)cc3)C(=O)O)cc2)N(CCCCS(=O)(=O)O)c2ccc(S(=O)(=O)O)cc21` (stereo not drawn): the volume of distribution (Vd) was 0.29 L/kg and the half-life was 0.44 h.

`COC(=O)Nc1c(N)nc(-c2nn(Cc3ccccc3F)c3ncc(F)cc23)nc1N`: the Vd is 0.73 L/kg, the clearance is 0.44 mL/min/kg and the half-life is 30 h.

As to `C[C@]12CC[C@@H]3C4=C(CC[C@H]3[C@@H]1CC[C@@H]2O)CC(=O)CC4`, the clearance is 26.7 mL/min/kg.

In the case of `CNC[C@@H](O)c1cccc(O)c1`, the clearance is 29.9 mL/min/kg.

Turning to `Cc1nc(C)c2c(n1)N(Cc1ccc(-c3ccccc3-c3nnn[nH]3)cc1)C(=O)CC2`, the clearance is 7.17 mL/min/kg.

As for `CC(=O)C1CC[C@H]2[C@@H]3CC[C@H]4C[C@](C)(O)CC[C@]4(C)[C@H]3CC[C@]12C` (stereo partly drawn), the half-life was 34 h.

Take `COC(=O)C1=C(C)NC(C)=C(C(=O)OC(C)C)[C@H]1c1cccc2nonc12`: the clearance is 9.52 mL/min/kg.

For `CON=C(C(=O)NC1C(=O)N2C(C(=O)[O-])=C(C[N+]34CCC(C(N)=O)(CC3)CC4)CS[C@H]12)c1nsc(N)n1` (stereo partly drawn), the clearance was 2.15 mL/min/kg.

`Cc1c(OCC(F)(F)F)ccnc1C[S@@+](O)c1nc2ccccc2[n-]1`: the clearance is 6.23 mL/min/kg.

On to `OCCOCCN1CCN(C2=Nc3ccccc3Sc3ccccc32)CC1`, for which the clearance is 19.1 mL/min/kg.

With `COP(=O)(OC)[C@H](O)C(Cl)(Cl)Cl`, the clearance is 5.67 mL/min/kg.

Consider `CCC[C@H](C)[C@@]1(CC)C(=O)N=C(S)NC1=O`, for which the clearance was 3.02 mL/min/kg.

For `C[C@@H]1COc2c(N3CCN(C)CC3)c(F)cc3c(=O)c(C(=O)O)cn1c23`, the clearance was 2.58 mL/min/kg.

On to `Cc1ncc([N+](=O)[O-])n1C[C@@H](C)O`, for which the clearance is 0.4 mL/min/kg.

Take `COc1c(N2CCN[C@@H](C)C2)c(F)cc2c(=O)c(C(=O)O)cn(C3CC3)c12`: the clearance was 2.85 mL/min/kg.

On to `NC(=O)c1ncn([C@H]2O[C@H](CO)[C@@H](O)[C@@H]2O)c1N`, for which the clearance is 41.7 mL/min/kg.

Take `Fc1ccc([C@H]2CCNC[C@@H]2COc2ccc3c(c2)OCO3)cc1`: the clearance is 6.8 mL/min/kg.

Turning to `NC(=O)c1cnn([C@H]2O[C@@H](CO)[C@@H](O)[C@@H]2O)n1`, the clearance is 5 mL/min/kg.

For `CC(CO)(CO)NCc1cc2c3ccccc3ccc2c2ccccc12`, the clearance is 8.44 mL/min/kg.

For the compound `CCc1ccc(CCOc2ccc(Cc3sc(=O)[nH]c3O)cc2)nc1`, the clearance is 1.43 mL/min/kg.

As for `CN1C(=O)NC(=O)[C@@](C)(C2=CCCCC2)C1=O`, the clearance is 3.6 mL/min/kg.

For the compound `Cc1nc2ccc(CN(C)c3ccc(C(=O)NC(CCC(=O)O)C(=O)O)s3)cc2c(=O)[nH]1` (stereo not drawn), the clearance is 0.59 mL/min/kg.

As for `CCN1CCC[C@@H]1CNC(=O)c1cc(S(=O)(=O)CC)c(N)cc1OC`, the clearance was 7.8 mL/min/kg.

Regarding `CC(NC(CCc1ccccc1)C(=O)O)C(=O)N1C(C(=O)O)C[C@@H]2CCCC[C@@H]21` (stereo partly drawn), the clearance is 1.67 mL/min/kg.

Take `CC(C)(C)NC[C@@H](O)COc1nsnc1N1CCOCC1`: the clearance is 8.1 mL/min/kg.

For the compound `C[C@@H]1CCC[C@@H](C)N1CCC[C@@](O)(c1ccccc1)c1ccccn1`, the clearance was 2.34 mL/min/kg.

As to `CC(C)NC(=O)COc1cccc(-c2nc(Nc3ccc4[nH]ncc4c3)c3ccccc3n2)c1`, the Vd was 3.07 L/kg, the clearance was 2.73 mL/min/kg and the half-life was 19 h.

On to `COc1ccc(-n2nccn2)c(C(=O)N2CCC[C@@]2(C)c2nc3c(C)c(Cl)ccc3[nH]2)c1`, for which the Vd is 0.52 L/kg and the half-life was 8 h.

In the case of `CCCCC1(CCCC)CS(=O)(=O)c2ccc(N(C)C)cc2[C@@H](c2ccc(OCc3ccc(C[N+]45CCN(CC4)CC5)cc3)cc2)[C@H]1O`, the half-life was 1.6 h.

On to `C[C@]12CC[C@@H]3c4ccc(O)cc4CC[C@H]3[C@@H]1[C@@H](O)[C@@H](O)[C@@H]2O`, for which the half-life was 27 h.

Consider `C[C@@H](O)C1C(=O)N2C(C(=O)O)=C(S[C@H]3CNC(C(=O)Nc4cccc(C(=O)O)c4)C3)[C@H](C)[C@@H]12` (stereo partly drawn), for which the clearance was 0.4 mL/min/kg.

Consider `COC(=O)C1[C@H](OC(=O)c2ccccc2)CC2CC[C@@H]1N2C` (stereo partly drawn), for which the clearance was 32 mL/min/kg.

On to `COc1cc2c(cc1OC)CN(C(=O)C(C)NC(CCc1ccccc1)C(=O)O)C(C(=O)O)C2` (stereo not drawn), for which the clearance is 3.31 mL/min/kg.

As for `CCCC(NC(C)C(=O)N1C(C(=O)O)C[C@@H]2CCCC[C@H]21)C(=O)O` (stereo partly drawn), the clearance is 10.9 mL/min/kg.

As for `CO[C@]1(NC(O)=c2sc(=C(C(N)=O)C(=O)O)s2)C(=O)N2C(C(=O)O)=C(CSc3nnnn3C)CS[C@@H]21`, the clearance is 0.63 mL/min/kg.

With `CNCC[C@H](Oc1ccc(C(F)(F)F)cc1)c1ccccc1`, the clearance is 9.6 mL/min/kg.

Regarding `CC1(C)S[C@H]2C(NC(=O)C(NC(=O)N3CCN(S(C)(=O)=O)C3=O)c3ccccc3)C(=O)N2C1C(=O)O` (stereo partly drawn), the clearance is 2.71 mL/min/kg.

`CN1CC[C@@]23c4c5ccc(O)c4OC2C(=O)CC[C@@H]3[C@@H]1C5` (stereo partly drawn): the clearance is 19.2 mL/min/kg.

Turning to `NS(=O)(=O)c1cc(-c2nn[nH]n2)c(NCc2cccs2)cc1Cl`, the clearance is 1.29 mL/min/kg.

Regarding `CC(C)NC[C@@H](O)COc1cccc2ccccc12`, the clearance was 13.7 mL/min/kg.

Turning to `NC(=O)N1c2ccccc2C=Cc2ccccc21`, the clearance is 1.11 mL/min/kg.

Take `C[C@](O)(CS(=O)(=O)c1ccc(F)cc1)C(=O)Nc1ccc(C#N)c(C(F)(F)F)c1`: the clearance was 3.67 mL/min/kg.

Regarding `CC(C)(C)NC[C@@H](O)COc1cccc2c1C[C@H](O)[C@@H](O)C2`, the clearance is 2.94 mL/min/kg.

Regarding `NC(=O)c1cc[n+](CC2=C(C(=O)O)N3C(=O)C(NC(=O)C(c4ccccc4)S(=O)(=O)[O-])[C@@H]3SC2)cc1` (stereo partly drawn), the clearance was 1.92 mL/min/kg.

As to `CCNC[C@H](O)c1ccc(O)cc1`, the clearance was 13.6 mL/min/kg.

With `CC[C@H](OC(C)=O)C(C[C@@H](C)N(C)C)(c1ccccc1)c1ccccc1`, the clearance is 4.09 mL/min/kg.

The same data set, now with this note: human; plasma.
The fraction unbound is free concentration divided by total concentration. Take `C=CC(=O)Nc1cc(Nc2ncc(C(=O)OC(C)C)c(-c3cn(C)c4ccccc34)n2)c(OC)cc1N(C)CCN(C)C`: the fraction unbound was 0.01.

For the compound `C=CC(=O)N1CCN(c2nc(=O)n(-c3c(C)ccnc3C(C)C)c3nc(-c4c(O)cccc4F)c(F)cc23)[C@@H](C)C1`, the fraction unbound was 0.11.

Take `COC(=O)Nc1c(N)nc(-c2nn(Cc3ccccc3F)c3ncc(F)cc23)nc1N`: the free fraction (fraction unbound) was 0.02.

For the compound `CC(=O)C1CC[C@H]2[C@@H]3CC[C@H]4C[C@](C)(O)CC[C@]4(C)[C@H]3CC[C@]12C` (stereo partly drawn), the fraction unbound is 0.01.

With `COc1ccc(-n2nccn2)c(C(=O)N2CCC[C@@]2(C)c2nc3c(C)c(Cl)ccc3[nH]2)c1`, the unbound share (fraction unbound) was 0.01.

In the case of `CCCCC1(CCCC)CS(=O)(=O)c2ccc(N(C)C)cc2[C@@H](c2ccc(OCc3ccc(C[N+]45CCN(CC4)CC5)cc3)cc2)[C@H]1O`, the fraction unbound was 0.09.

Regarding `C[C@]12CC[C@@H]3c4ccc(O)cc4CC[C@H]3[C@@H]1[C@@H](O)[C@@H](O)[C@@H]2O`, the unbound share (fraction unbound) was 0.52.
